Values quoted from earlier work as cited in patent publication US8628797B2, “Oral extended-release composition” (Andrx Pharmaceuticals, LLC, priority 2003, dated 2014).

Conditions: in vivo

| absorption in the presence of food | Compound |
| --- | --- |
| increased | COc1c2occc2cc2ccc(=O)oc12 [8-methoxsalen] |

Same assay, conditions: in words; literature review

| absorption in the presence of food | Compound |
| --- | --- |
| delayed | C=CCOc1ccc(CC(=O)O)cc1Cl [alclofenac] |
| delayed | CN/C(=N/CCSCc1nc[nH]c1C)NC#N [cimetidine] |
| increased | O=c1oc2ccccc2c(O)c1Cc1c(O)c2ccccc2oc1=O [dicoumarol] |
| unaffected | spiramycin |
| delayed | CC(=O)Oc1ccccc1C(=O)O [aspirin] |
| delayed | N[C@@H](C(=O)N[C@@H]1C(=O)N2C(C(=O)O)=C(Cl)CS[C@H]12)c1ccccc1 [cefaclor] |
| delayed | CC(C(=O)O)c1ccc(N2Cc3ccccc3C2=O)cc1 (stereo not shown) [indoprofen] |
| increased | O=C1CN(/N=C/c2ccc([N+](=O)[O-])o2)C(=O)N1 [nitrofurantoin] |
| unaffected | NS(=O)(=O)c1cc2c(cc1C(F)(F)F)NC(Cc1ccccc1)NS2(=O)=O (stereo not shown) [bendroflumethiazide] |
| unaffected | CCC(=O)O[C@H]1[C@H](O[C@@H]2[C@@H](C)[C@H](O[C@H]3C[C@@](C)(OC)[C@@H](O)[C@H](C)O3)[C@@H](C)C(=O)O[C@H](CC)[C@@](C)(O)[C@H](O)[C@@H](C)C(=O)[C@H](C)C[C@@]2(C)O)O[C@H](C)C[C@@H]1N(C)C [erythromycin estolate] |

Conditions: 1 part drug in the stated parts of water

| solubility | Compound |
| --- | --- |
| ~1,000 parts of water | CC[C@H]1OC(=O)[C@H](C)[C@@H](O[C@H]2C[C@@](C)(OC)[C@@H](O)[C@H](C)O2)[C@H](C)[C@@H](O[C@@H]2O[C@H](C)C[C@H](N(C)C)[C@H]2O)[C@](C)(OC)C[C@@H](C)C(=O)[C@H](C)[C@@H](O)[C@]1(C)O [Clarithromycin, 6-O-methylerythromycin A] |
| more than 10,000 parts of water | CC1Cc2ccccc2N1NC(=O)c1ccc(Cl)c(S(N)(=O)=O)c1 (stereo not shown) [indapamide] |
